Measurements from patent US20240343704A1, “HALO-SUBSTITUTED AMINO PYRIDINE COMPOUNDS AS INHIBITORS OF THE HAEMATOPOIETIC PROGENITOR KINASE 1 (HPK1)” (priority 2021, published 2024).

Key:
[1] = biological target: T1, Recombinant (1-346) HPK1 (h) (Homo sapiens, UniProt Q92918); experiment: HPK1 Human STE Kinase Enzymatic Radiometric Assay; type: biochemical; conditions: read-out: HPK1 IC50 nM Range*
T1 construct: Recombinant (1-346) HPK1 (h) is incubated with 8 mM MOPS pH 7.0
T1 sequence (Q92918 1-346): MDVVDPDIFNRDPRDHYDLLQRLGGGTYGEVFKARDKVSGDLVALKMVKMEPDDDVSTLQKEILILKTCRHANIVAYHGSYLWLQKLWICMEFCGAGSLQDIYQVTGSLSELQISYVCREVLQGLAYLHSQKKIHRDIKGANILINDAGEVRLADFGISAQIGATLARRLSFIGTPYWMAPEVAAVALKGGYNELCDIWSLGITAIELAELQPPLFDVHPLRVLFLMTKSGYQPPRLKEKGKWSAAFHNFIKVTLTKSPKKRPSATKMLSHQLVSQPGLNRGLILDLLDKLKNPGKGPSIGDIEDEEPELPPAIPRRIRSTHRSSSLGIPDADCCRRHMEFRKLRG
Protocol: A stock solution of 10 mM of test compound is prepared in DMSO. The compound plate was prepared by 3-fold and 9-point serial dilutions. […] The reaction is initiated by The addition of the Mg/ATP mix. After incubation for 40 minutes at RT, the reaction is stopped by the addition of phosphoric acid to a concentration of 0.5%.

Lck (h) = Lck (h) (Homo sapiens, UniProt P06239); experiment: Lck Human  Kinase Enzymatic Radiometric Assay; type: biochemical; conditions: read-out: Lck IC50 nM Range*
Chain of Lck (h) (P06239 whole entry): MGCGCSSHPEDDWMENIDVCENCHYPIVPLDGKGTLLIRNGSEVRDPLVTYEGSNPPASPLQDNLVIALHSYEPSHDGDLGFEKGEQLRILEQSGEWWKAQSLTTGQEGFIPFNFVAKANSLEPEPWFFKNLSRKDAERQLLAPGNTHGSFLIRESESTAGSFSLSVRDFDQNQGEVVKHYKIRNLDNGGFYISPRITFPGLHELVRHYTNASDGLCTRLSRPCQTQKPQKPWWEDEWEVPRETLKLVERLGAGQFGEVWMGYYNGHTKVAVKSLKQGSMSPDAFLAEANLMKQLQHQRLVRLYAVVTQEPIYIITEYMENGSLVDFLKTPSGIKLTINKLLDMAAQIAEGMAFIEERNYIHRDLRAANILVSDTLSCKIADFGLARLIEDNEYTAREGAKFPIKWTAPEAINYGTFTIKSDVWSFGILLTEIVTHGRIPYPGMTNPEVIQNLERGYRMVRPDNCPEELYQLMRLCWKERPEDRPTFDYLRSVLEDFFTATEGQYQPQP
Procedure, shortened: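 Substrate 33P-incorporation measured by scintillation counting after spotting on P30 filtermat and phosphoric acid washes. Human Lck reacted 40 min at RT in 50 mM Tris pH 7.5 with 10 mM MgAcetate, [gamma-33P]-ATP, 250 uM Cdc2 peptide, 0.1 mM EGTA and 0.1 mM Na3VO4.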

Row | SMILES | IC50 [1] | IC50 (Lck (h))
1 | CC(C)N1CCN(c2ccc(-c3cc(-c4cc(N)c5c(c4)CCNC5=O)c(N)nc3F)cc2)CC1 [I-357, 8-amino-6-(2-amino-6-fluoro-5-(4-(4-isopropylpiperazin-1-yl)phenyl)pyridin-3-yl)-3,4-dihydroisoquinolin-1(2H)-one] | 101 to 1000 nM | 101 to 1000 nM
2 | CC(C)N1CCN(c2ccc(-c3cc(-c4ccc5c(c4)OCCNC5=O)c(N)nc3F)cc2)CC1 [I-358, 8-(2-amino-6-fluoro-5-(4-(4-isopropylpiperazin-1-yl)phenyl)pyridin-3-yl)-3,4-dihydrobenzo[f][1,4]oxazepin-5(2H)-one] | 0.1 to 10 nM | > 1000 nM
3 | Nc1nc(F)c(-c2ccc(N3CCS(=O)(=O)CC3)cc2)cc1-c1cc(F)c2c(c1)CCNC2=O [I-359, 6-(2-amino-5-(4-(1,1-dioxidothiomorpholino)phenyl)-6-fluoropyridin-3-yl)-8-fluoro-3,4-dihydroisoquinolin-1(2H)-one] | 0.1 to 10 nM | > 1000 nM
4 | CC(C)N1CCN(c2ccc(-c3cc(-c4ccc5c(=O)[nH]cnc5c4)c(N)nc3F)cc2)CC1 [I-362, 7-(2-amino-6-fluoro-5-(4-(4-isopropylpiperazin-1-yl)phenyl)pyridin-3-yl)quinazolin-4(3H)-one] | 0.1 to 10 nM | > 1000 nM
5 | Nc1nc(F)c(-c2ccc(C3CCOCC3)c([C@@H]3CCCN3)c2)cc1-c1ccc2c(c1)CCNC2=O [I-367, (S)-6-(2-amino-6-fluoro-5-(3-(pyrrolidin-2-yl)-4-(tetrahydro-2H-pyran-4-yl)phenyl)pyridin-3-yl)-3,4-dihydroisoquinolin-1(2H)-one] | 0.1 to 10 nM | 101 to 1000 nM
6 | Nc1nc(F)c(-c2ccc(C3CCOCC3)c([C@@H]3CCCN3)c2)cc1-c1cc2c(cc1F)C(=O)NCC2 [I-368, (S)-6-(2-amino-6-fluoro-5-(3-(pyrrolidin-2-yl)-4-(tetrahydro-2H-pyran-4-yl)phenyl)pyridin-3-yl)-7-fluoro-3,4-dihydroisoquinolin-1(2H)-one] | 0.1 to 10 nM | 11 to 100 nM
7 | Nc1nc(F)c(-c2ccc(C3CCOCC3)c([C@@H]3CCCN3)c2)cc1-c1cc(F)c2c(c1)CCNC2=O [I-369, (S)-6-(2-amino-6-fluoro-5-(3-(pyrrolidin-2-yl)-4-(tetrahydro-2H-pyran-4-yl)phenyl)pyridin-3-yl)-8-fluoro-3,4-dihydroisoquinolin-1(2H)-one] | 0.1 to 10 nM | > 1000 nM
8 | Nc1nc(F)c(-c2ccc(C3CCOCC3)c([C@@H]3CCCN3)c2)cc1-c1ccc2c(=O)[nH]ccc2c1 [I-370, (S)-6-(2-amino-6-fluoro-5-(3-(pyrrolidin-2-yl)-4-(tetrahydro-2H-pyran-4-yl)phenyl)pyridin-3-y)isoquinolin-1(2H)-one] | 0.1 to 10 nM | > 1000 nM
9 | CC(C)N1CCN(c2ccc(-c3cc(-c4cc(F)c5c(=O)[nH]ccc5c4)c(N)nc3F)cc2)CC1 [I-372, 6-(2-amino-6-fluoro-5-(4-(4-isopropylpiperazin-1-yl)phenyl)pyridin-3-yl)-8-fluoroisoquinolin-1(2H)-one] | 0.1 to 10 nM | 101 to 1000 nM
10 | CC(C)N1CCN(c2ccc(-c3cc(-c4cc5cc[nH]c(=O)c5cc4F)c(N)nc3F)cc2)CC1 [I-373, 6-(2-amino-6-fluoro-5-(4-(4-isopropylpiperazin-1-yl)phenyl)pyridin-3-yl)-7-fluoroisoquinolin-1(2H)-one] | 0.1 to 10 nM | 11 to 100 nM
11 | Cc1cc2cc(-c3cc(-c4ccc(N5CCN(C(C)C)CC5)cc4)c(F)nc3N)ccc2c(=O)[nH]1 [I-377, 6-(2-amino-6-fluoro-5-(4-(4-isoporpylpiperazin-1-yl)phenyl)pyridin-3-yl)-3-methylisoquinolin-1(2H)-one] | 0.1 to 10 nM | 101 to 1000 nM
12 | Cc1c[nH]c(=O)c2ccc(-c3cc(-c4ccc(N5CCN(C(C)C)CC5)cc4)c(F)nc3N)cc12 [I-378, 6-(2-amino-6-fluoro-5-(4-(4-isopropylpiperazin-1-yl)phenyl)pyridin-3-yl)-4-methylisoquinolin-1(2H)-one] | 0.1 to 10 nM | > 1000 nM
13 | CC(C)N1CCN(c2ccc(-c3cc(-c4ccc5c(=O)[nH]cc(F)c5c4)c(N)nc3F)cc2)CC1 [I-379, 6-(2-amino-6-fluoro-5-(4-(4-isopropylpiperazin-1-yl)phenyl)pyridin-3-yl)-4-fluoroisoquinolin-1(2H)-one] | 0.1 to 10 nM | > 1000 nM
14 | Cc1cc2cc(-c3cc(-c4ccc(N5CCN(C(C)C)CC5)cc4)c(F)nc3N)cc(F)c2c(=O)[nH]1 [I-380, 6-(2-amino-6-fluoro-5-(4-(4-isopropylpiperazin-1-yl)phenyl)pyridin-3-yl)-8-fluoro-3-methylisoquinolin-1(2H)-one] | 0.1 to 10 nM | > 1000 nM
15 | Cc1[nH]c(=O)c2ccc(-c3cc(-c4ccc(N5CCN(C(C)C)CC5)cc4)c(F)nc3N)cc2c1F [I-381, 6-(2-amino-6-fluoro-5-(4-(4-isopropylpiperazin-1-yl)phenyl)pyridin-3-yl)-4-fluoro-3-methylisoquinolin-1(2H)-one] | 101 to 1000 nM | > 1000 nM
16 | CC(C)N1CCN(c2ccc(-c3cc(-c4cc(F)c5c(c4)CCNC5=O)c(N)nc3F)cc2F)CC1 [I-386, 6-(2-amino-6-fluoro-5-(3-fluoro-4-(4-isopropylpiperazin-1-yl)phenyl)pyridin-3-yl)-8-fluoro-3,4-dihydroisoquinolin-1(2H)-one] | 0.1 to 10 nM | 0.1 to 10 nM
17 | C[C@H](C1CC1)N1CCN(c2ccc(-c3cc(-c4cc(F)c5c(c4)CCNC5=O)c(N)nc3F)cc2)CC1 [I-390, (R)-6-(2-amino-5-(4-(4-(1-cyclopropylethyl)piperazin-1-yl)phenyl)-6-fluoropyridin-3-yl)-8-fluoro-3,4-dihydroisoquinolin-1(2H)-one] | 0.1 to 10 nM | 101 to 1000 nM

Other lines, results leading:

Row | IC50 [1] | IC50 (Lck (h)) | SMILES
18 | 11 to 100 nM | > 1000 nM | CC(C)N1CCN(c2ccc(-c3cc(-c4ccc5c(=O)[nH]ncc5c4)c(N)nc3F)cc2)CC1 [I-363, 6-(2-amino-6-fluoro-5-(4-(4-isopropylpiperazin-1-yl)phenyl)pyridin-3-yl)phthalazin-1(2H)-one]
19 | 0.1 to 10 nM | > 1000 nM | CC(C)N1CCN(c2ccc(-c3cc(-c4ccc5c(=O)[nH]ccc5c4)c(N)nc3F)cc2)CC1 [I-364, 6-(2-amino-6-fluoro-5-(4-(4-isopropylpiperazin-1-yl)phenyl)pyridin-3-yl)isoquinolin-1(2H)-one]
20 | 0.1 to 10 nM | > 1000 nM | Nc1nc(F)c(-c2ccc(N3CCN(CC4CC4)CC3)cc2)cc1-c1ccc2c(=O)[nH]ccc2c1 [I-374, 6-(2-amino-5-(4-(4-(cyclopropylmethyl)piper-azin-1-yl)phenyl)-6-fluoropyridin-3-yl)isoquinolin-1(2H)-one]
21 | 0.1 to 10 nM | > 1000 nM | Nc1nc(F)c(-c2ccc(N3CCN(CC4CC4)CC3)cc2)cc1-c1cc(F)c2c(=O)[nH]ccc2c1 [I-375, 6-(2-amino-5-(4-(4-(cyclopropylmethyl)piper-azin-1-yl)phenyl)-6-fluoropyridin-3-yl)-8-fluoroisoquinolin-1(2H)-one]
22 | 0.1 to 10 nM | > 1000 nM | Nc1nc(F)c(-c2ccc(N3CCN(CC4CC4)CC3)cc2)cc1-c1cc2cc[nH]c(=O)c2cc1F [I-376, 6-(2-amino-5-(4-(4-(cyclopropylmethyl)piper-azin-1-yl)phenyl)-6-fluoropyridin-3-yl)-7-fluoroisoquinolin-1(2H)-one]
23 | 0.1 to 10 nM | 101 to 1000 nM | Nc1nc(F)c(-c2ccc(N3CCN(CCC4CC4)CC3)cc2)cc1-c1cc(F)c2c(c1)CCNC2=O [I-384, 6-(2-amino-5-(4-(4-(2-cyclopropylethyl)piperazin-1-yl)phenyl)-6-fluoropyridin-3-yl)-8-fluoro-3,4-dihydroisoquinolin-1(2H)-one]
24 | 0.1 to 10 nM | > 1000 nM | Nc1nc(F)c(-c2ccc(N3CCN(CCC4CC4)CC3)cc2)cc1-c1ccc2c(=O)[nH]ccc2c1 [I-389, 6-(2-amino-5-(4-(4-(2-cyclopropylethyl)piperazin-1-yl)phenyl)-6-fluoropyridin-3-yl)isoquinolin-1(2H)-one]
25 | 0.1 to 10 nM | 101 to 1000 nM | C[C@H](C1CC1)N1CCN(c2ccc(-c3cc(-c4cc(F)c5c(=O)[nH]ccc5c4)c(N)nc3F)cc2)CC1 [I-391, (R)-6-(2-amino-5-(4-(4-(1-cyclopropylethyl)piperazin-1-yl)phenyl)-6-fluoropyridin-3-yl)-8-fluoroisoquinolin-1(2H)-one]
26 | 0.1 to 10 nM | 101 to 1000 nM | C[C@@H](C1CC1)N1CCN(c2ccc(-c3cc(-c4cc(F)c5c(=O)[nH]ccc5c4)c(N)nc3F)cc2)CC1 [I-393, (S)-6-(2-amino-5-(4-(4-(1-cyclopropylethyl)piperazin-1-yl)phenyl)-6-fluoropyridin-3-yl)-8-fluoroisoquinolin-1(2H)-one]
27 | 0.1 to 10 nM | 101 to 1000 nM | CCN1CCN(c2ccc(-c3cc(-c4cc(F)c5c(=O)[nH]ccc5c4)c(N)nc3F)cc2)CC1 [I-394, 6-(2-amino-5-(4-(4-ethylpiperazin-1-yl)phenyl)-6-fluoropyridin-3-yl)-8-fluoroisoquinolin-1(2H)-one]
